Tests used:
[1] = test system: tyrosinase; experiment: Tyrosine oxidation preventing effect (tyrosine oxide polymer production); format: biochemical; conditions: Ultraviolet rays
Method: In a quartz cell was put 1 ml of L-tyrosine (30 mg/100 ml), 1 ml of a tris buffer solution and 0.9 ml of a test solution (6.25×1/10^2 mol/l-1 mol/l), and the mixture was allowed to stand under radiation from an ultraviolet lamp at 37° C. for 10 minutes. Following this, 0.1 ml of tyrosinase (2000 units/ml) were added thereto, and further irradiated under an ultraviolet lamp at 37° C. for 30 minutes, after which the production of tyrosine oxide polymers was measured at 475 nm.

[2] = test system: tyrosinase; experiment: as above; format: biochemical; conditions: Indoors
[3] = alloxan; cited from earlier work
[4] = test system: XOD; experiment: Inhibition of XOD reaction by SOD (system (3) of SOD activating method); format: biochemical; conditions: SOD 0.1 ml
Description: Next, a measurement was made of the SOD activating function.
(3) System for inhibiting XOD reaction with SOD. XOD reaction was 20%

[5] = applied externally to the skin; cited from earlier work

## N=C(N)NCCS(=O)(O)=S [thiotaurocyamine]
[1]; 1 mol/l
  Inhibition rate (tyrosine oxidation): 96.6%
[1]; 1.25 × 10^-1 mol/l
  Inhibition rate (tyrosine oxidation): 88.2%
[1]; 2.5 × 10^-1 mol/l
  Inhibition rate (tyrosine oxidation): 92.8%
[1]; 5 × 10^-1 mol/l
  Inhibition rate (tyrosine oxidation): 92.4%
[1]; 6.25 × 10^-2 mol/l
  Inhibition rate (tyrosine oxidation): 78.0%
[2]; 1 mol/l
  Inhibition rate (tyrosine oxidation): 91.5%
[2]; 1.25 × 10^-1 mol/l
  Inhibition rate (tyrosine oxidation): 36.8%
[2]; 2.5 × 10^-1 mol/l
  Inhibition rate (tyrosine oxidation): 61.7%
[2]; 5 × 10^-1 mol/l
  Inhibition rate (tyrosine oxidation): 87.7%
[2]; 6.25 × 10^-2 mol/l
  Inhibition rate (tyrosine oxidation): 12.8%

## catalase
[3]
  symptoms of diabetes: suppressed

## superoxide dismutase [SOD]
[4]
  XOD reaction inhibited by SOD: 20%
[5]
  amount of lipid peroxides in the epidermis due to UV rays: lowering the amount of lipid peroxides (LPO) in the epidermis due to UV rays
[3]
  symptoms of diabetes: suppressed
